According to patent US7919506B2, “Dibenzyl amine compounds and derivatives” (Pfizer Inc., priority 2006, dated 2011):

melting point: 103 to 104 °C
SMILES: COC1(c2ccc(C(F)(F)F)cc2CN(Cc2cc(C(F)(F)F)cc(C(F)(F)F)c2)c2nnn(C)n2)CCCCCC1 [Example 52, N-(2-(1-methoxycycloheptyl)-5-(trifluoromethyl)benzyl)-N-(3,5-bis(trifluoromethyl)benzyl)-2-methyl-2H-tetrazol-5-amine]
